As a reminder, the IC50 is the concentration that inhibits the measured activity by half.

The results in this text go back to patent US6974837B2, “Compositions comprising sibutramine metabolites in combination with phosphodiesterase inhibitors” (Sepracor Inc., priority 1999, dated 2005).

Assay [1] deals with human recombinant norepinephrine (NE) uptake site (Homo sapiens, UniProt P23975). As to the kind of experiment: Binding at the norepinephrine (NE) uptake site.
The target in assay [2] is serotonin (5-HT) uptake site (Rattus norvegicus, UniProt P31652).
Chain of serotonin (5-HT) uptake site (P31652 whole entry): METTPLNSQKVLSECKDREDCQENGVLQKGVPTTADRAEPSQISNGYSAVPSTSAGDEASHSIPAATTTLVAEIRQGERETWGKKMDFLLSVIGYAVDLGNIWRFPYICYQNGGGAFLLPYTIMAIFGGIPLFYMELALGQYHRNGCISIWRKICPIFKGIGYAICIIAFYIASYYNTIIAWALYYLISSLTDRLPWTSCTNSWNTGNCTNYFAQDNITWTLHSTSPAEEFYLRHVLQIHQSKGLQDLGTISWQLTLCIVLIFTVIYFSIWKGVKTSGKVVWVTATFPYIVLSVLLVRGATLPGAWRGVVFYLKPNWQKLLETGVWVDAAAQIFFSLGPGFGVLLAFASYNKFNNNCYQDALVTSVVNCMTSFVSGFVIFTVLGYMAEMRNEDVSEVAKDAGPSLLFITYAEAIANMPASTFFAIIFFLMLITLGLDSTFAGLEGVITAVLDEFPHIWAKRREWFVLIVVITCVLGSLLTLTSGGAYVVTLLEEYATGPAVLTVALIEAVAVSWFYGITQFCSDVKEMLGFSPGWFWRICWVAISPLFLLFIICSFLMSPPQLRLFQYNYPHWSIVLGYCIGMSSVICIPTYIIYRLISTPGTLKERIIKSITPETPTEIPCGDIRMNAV
Assay [3] has as its system nonselective muscarinic receptor. As to the kind of experiment: Binding at the nonselective muscarinic receptor. Also noted: species or system rat. The note with it: for IC50: rat cerebral cortex.
The mark [4] stands for this setting: human recombinant NE uptake site, read-out: Binding IC50 NE Uptake.

Where two headings read alike, the source gives them in different places.

Chain of human recombinant norepinephrine (NE) uptake site (P23975 whole entry): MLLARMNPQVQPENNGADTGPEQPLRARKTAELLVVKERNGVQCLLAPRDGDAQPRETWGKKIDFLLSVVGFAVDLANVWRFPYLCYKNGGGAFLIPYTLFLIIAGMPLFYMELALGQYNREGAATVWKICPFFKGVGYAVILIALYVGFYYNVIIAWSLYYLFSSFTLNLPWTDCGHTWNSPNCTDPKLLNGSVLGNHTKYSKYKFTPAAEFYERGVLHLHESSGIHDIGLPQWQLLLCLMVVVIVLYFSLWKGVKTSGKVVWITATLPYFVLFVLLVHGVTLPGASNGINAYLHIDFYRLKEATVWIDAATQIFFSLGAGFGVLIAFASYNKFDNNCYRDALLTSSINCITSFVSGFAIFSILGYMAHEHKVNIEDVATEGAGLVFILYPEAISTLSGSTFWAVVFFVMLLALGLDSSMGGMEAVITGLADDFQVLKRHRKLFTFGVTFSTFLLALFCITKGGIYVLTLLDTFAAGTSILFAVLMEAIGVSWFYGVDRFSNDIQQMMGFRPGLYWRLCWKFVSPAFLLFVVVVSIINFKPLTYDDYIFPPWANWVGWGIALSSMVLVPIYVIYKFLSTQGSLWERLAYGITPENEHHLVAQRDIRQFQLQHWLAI

Regarding `CN[C@H](CC(C)C)C1(c2ccc(Cl)cc2)CCC1` [(R)-desMe], in assay [1], the “NE uptake site binding / inhibition (in words)” value is listed as “potent inhibitors”. The half-maximal inhibitory concentration (IC50) in assay [1] (setting [4]) is 4 nM. Besides, the “5-HT uptake site binding / inhibition (in words)” value in assay [2] is given as “potent inhibitors”. Further, the “affinity / activity at muscarinic site (in words)” value in assay [3] is given as “negligible activity”.

In the case of `CNC(CC(C)C)C1(c2ccc(Cl)cc2)CCC1` (racemic) [(R/S)-desMe, 1-(4-chlorophenyl)-N-methyl-2-(2-methylpropyl)-cyclobutanamethamine], the results for the IC50 in assay [1] and in assay [3] were 10 nM and 1170 nM, respectively.

In the case of `CC(C)C[C@@H](N)C1(c2ccc(Cl)cc2)CCC1` [(R)-didesMe], in assay [1], the “NE uptake site binding / inhibition (in words)” value is listed as “potent inhibitors”. Also, the 50% inhibitory concentration (IC50) in assay [1] (setting [4]) was 13 nM. Moreover, the “5-HT uptake site binding / inhibition (in words)” value in assay [2] is “potent inhibitors”. For the same compound, in assay [3], the “affinity / activity at muscarinic site (in words)” value is “negligible activity”.

On to `CN[C@@H](CC(C)C)C1(c2ccc(Cl)cc2)CCC1` [(S)-desMe], for which the values for the IC50 in assay [1] and in assay [3] were 870 nM and 654 nM, respectively.

`CN1[C@@H]2CC[C@H]1C[C@@H](OC(=O)C(CO)c1ccccc1)C2` (stereo partly shown) [Atropine, reference compound] gave a 50% inhibitory concentration (IC50) in assay [3] of 0.31 nM.
